Measured values as given in patent publication US20220409601A1, “COMBINATION CANNABINOID-NAD+ PRECURSOR FORMULATION FOR TREATMENT OF INFLAMMATION AND METHODS RELATED THERETO” (priority 2019, published 2022).
Like-named read-outs stand apart in the source and are kept apart here.

What was measured:
chondrocytes (C-28/I2) = experiment: toxicity screen, maximum tolerable concentration in chondrocytes
Excerpt: (§1) A clonal derivative of ATCC-certified normal chondrocytes was used for a study to determine cytokine expression. The parent line was originally derived from costal cartilage of adolescent […]. The cell line used is C-28/I2 accession number CVCL 0187. The cells were immortalized via retroviral vector-mediated SV40 Large T antigen expression. Cells were confirmed negative for mycoplasma contamination and genotyped by STR analysis to verify cell identity. This cell line is widely used as a model for studying normal and pathological cartilage repair mechanisms and inflammation.
(§2) The cells were cultured at 37° C. with 5% CO2, DMEM/F12 media supplemented with 10% heat-inactivated fetal bovine serum. Antimicrobials were not added to the media. Cells were maintained between 40 and 80% confluency to avoid terminal differentiation. Cells used for the experiments had been passaged no more than ten times prior to each experiment.
A series of pilot studies were performed to design the final full-scale experiment. First, a toxicity screen for each test compound was performed to establishment maximum tolerable concentrations in this model system. Second, assays were run to establish the optimal means of inducing a pro-inflammatory state in the cell culture system. Third, conditions were tested to set the most favorable dilution scheme in order to maintain samples within the linear range of detection for each analyte. To establish the test concentrations for each test compound, chondrocytes were treated with a serial dilution of each compound, for 24 and 48 hours under serum free conditions. Oleocanthal or CBD were tested at two-fold dilutions down from 50 micromolar (μM).

GM-CSF = conditions: IL1β 10 ng/ml, 24 hours, no serum
Excerpt: as §1, §2

[1] = 24 hours post-treatment, serum free, chondrocytes, microscopy (vacuolation, blebbing, reduced cell count), unit not given
[2] = High level (CBD 6.00 μM, niacin 900 μM), FIG. 1, 2C
[3] = Moderate level (CBD 2.00 μM, niacin 300 μM), FIG. 1, 2B

Structure (SMILES)	maximum tolerable concentration (chondrocytes (C-28/I2); [1])	effect on GM-CSF expression (GM-CSF; [2])	effect on GM-CSF expression (GM-CSF; [3])	maximum tolerable concentration (chondrocytes (C-28/I2); human, 24 h) [mM]
C=C(C)[C@@H]1CCC(C)=C[C@H]1c1c(O)cc(CCCCC)cc1O [CBD, cannabidiol]	604	This effect was not seen	This effect was not seen	–
O=C(O)c1cccnc1 [niacin, nicotinic acid]	–	This effect was not seen	This effect was not seen	1
C/C=C(/C=O)[C@@H](CC=O)CC(=O)OCCc1ccc(O)cc1 [oleocanthal]	604	–	–	–
